This note sets out measurements from patent US8148391B2 (Cephalon, Inc., priority 2006, dated 2012).

In assay [1] the target is T1, baculovirus-expressed ALK (Homo sapiens, UniProt Q9UM73).
T1 construct: host or cells: baculovirus expression system
The assay is described as follows: ALK Kinase Assay (ELISA-type, time-resolved fluorescence). It is filed as biochemical. To be noted: ALK kinase inhibition, 1 μM ATP; read-out: ALK Activity. The method, boiled down:
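Plates coated with phospholipase C-γ substrate (10 μg/mL in TBS); reaction started with 30 ng/ml ALK and run 15 min at 37° C. Phosphorylated substrate detected with Eu-N1-labeled PT66 antibody. IC50 from sigmoidal variable-slope fit of percent inhibition vs log concentration.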
Background: ELISA stands for enzyme-linked immunosorbent assay.

For assay [2], the target named is T2, c-Met (cytoplasmic domain) (Homo sapiens, UniProt P08581).
T2 construct: 10 ng/mL c-Met (cytoplasmic domain, Invitrogen Corporation #PV3143); purchased Invitrogen Corporation PV3143
Kind of assay: c-Met Kinase Assay (same methods as for ALK, with modifications). In kind it is biochemical. The following applies: c-Met kinase inhibition, 1 μM ATP; read-out: cMet Activity. In short, it runs like this:
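Plates were coated with phospholipase C-γ substrate (10 μg/mL) in TBS, and the reaction was started with 10 ng/mL c-Met cytoplasmic domain and run 15 min at 37 °C. Phosphoproduct was detected with Eu-N1-labelled PT66 antibody. IC50 came from a variable-slope sigmoidal fit of percent inhibition vs log concentration.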

T2 sequence (P08581 956-1390 limits assumed): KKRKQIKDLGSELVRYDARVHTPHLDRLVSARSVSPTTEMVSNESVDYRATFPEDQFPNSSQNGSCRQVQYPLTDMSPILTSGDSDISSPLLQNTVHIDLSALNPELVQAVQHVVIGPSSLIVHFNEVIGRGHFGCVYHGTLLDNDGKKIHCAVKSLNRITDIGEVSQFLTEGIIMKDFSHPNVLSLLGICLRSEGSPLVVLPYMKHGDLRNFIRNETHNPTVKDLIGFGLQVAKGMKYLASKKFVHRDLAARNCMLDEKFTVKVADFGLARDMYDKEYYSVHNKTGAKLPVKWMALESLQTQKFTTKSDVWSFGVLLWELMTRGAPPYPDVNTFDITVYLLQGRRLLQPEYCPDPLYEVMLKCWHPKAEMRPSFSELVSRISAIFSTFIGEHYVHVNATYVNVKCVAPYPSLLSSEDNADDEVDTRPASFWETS
T1 sequence (Q9UM73 19-1620): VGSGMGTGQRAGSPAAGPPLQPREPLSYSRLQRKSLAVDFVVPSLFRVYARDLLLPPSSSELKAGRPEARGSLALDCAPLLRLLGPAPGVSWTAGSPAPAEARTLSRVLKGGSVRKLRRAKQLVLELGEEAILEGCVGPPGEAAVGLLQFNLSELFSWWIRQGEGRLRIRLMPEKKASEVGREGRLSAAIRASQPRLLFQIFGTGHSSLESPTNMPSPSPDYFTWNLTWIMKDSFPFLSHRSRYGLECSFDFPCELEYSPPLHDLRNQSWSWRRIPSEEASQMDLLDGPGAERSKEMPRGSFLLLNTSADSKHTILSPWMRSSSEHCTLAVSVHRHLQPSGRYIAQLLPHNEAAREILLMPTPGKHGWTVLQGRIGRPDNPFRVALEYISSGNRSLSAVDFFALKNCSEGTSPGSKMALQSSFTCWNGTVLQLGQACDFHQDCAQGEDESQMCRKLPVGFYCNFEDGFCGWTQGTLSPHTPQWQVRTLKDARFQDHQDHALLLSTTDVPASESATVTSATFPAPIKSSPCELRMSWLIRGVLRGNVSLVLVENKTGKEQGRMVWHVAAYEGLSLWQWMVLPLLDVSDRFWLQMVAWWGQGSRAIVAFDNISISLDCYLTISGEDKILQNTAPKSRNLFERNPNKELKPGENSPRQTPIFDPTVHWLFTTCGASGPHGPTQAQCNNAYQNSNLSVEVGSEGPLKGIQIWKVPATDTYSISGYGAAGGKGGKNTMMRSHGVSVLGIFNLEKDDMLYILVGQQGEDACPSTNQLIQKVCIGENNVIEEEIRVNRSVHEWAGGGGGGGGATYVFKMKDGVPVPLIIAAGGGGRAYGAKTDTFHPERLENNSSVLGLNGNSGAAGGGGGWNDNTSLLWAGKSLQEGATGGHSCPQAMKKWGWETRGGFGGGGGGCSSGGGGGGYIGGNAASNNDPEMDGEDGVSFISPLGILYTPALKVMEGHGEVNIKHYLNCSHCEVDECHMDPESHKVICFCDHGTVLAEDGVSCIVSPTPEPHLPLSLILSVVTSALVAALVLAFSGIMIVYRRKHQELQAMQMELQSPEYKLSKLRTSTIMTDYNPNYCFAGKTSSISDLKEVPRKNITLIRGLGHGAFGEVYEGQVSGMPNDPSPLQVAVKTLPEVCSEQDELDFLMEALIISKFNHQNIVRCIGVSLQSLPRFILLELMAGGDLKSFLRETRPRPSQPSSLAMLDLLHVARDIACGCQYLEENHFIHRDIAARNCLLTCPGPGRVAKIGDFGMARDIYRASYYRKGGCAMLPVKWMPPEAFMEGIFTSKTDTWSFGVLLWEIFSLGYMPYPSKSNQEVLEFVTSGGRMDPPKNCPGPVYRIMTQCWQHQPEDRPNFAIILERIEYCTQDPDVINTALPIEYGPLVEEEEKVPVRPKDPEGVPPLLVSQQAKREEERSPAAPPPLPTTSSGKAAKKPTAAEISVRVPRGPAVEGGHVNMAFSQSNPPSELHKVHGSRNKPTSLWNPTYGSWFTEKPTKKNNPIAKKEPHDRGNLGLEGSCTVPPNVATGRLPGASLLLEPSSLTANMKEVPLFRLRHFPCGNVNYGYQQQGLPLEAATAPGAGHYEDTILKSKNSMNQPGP

As to `CNC(=O)c1ccccc1Nc1nc(Nc2cc3c(cc2OC)N(C)C(=O)OCC3)ncc1C(F)(F)F` [Example 1513, 2-[2-(3-Methoxy-5-methyl-6-oxo-5,6,8,9-tetrahydro-7-oxa-5-aza-benzocyclohepten-2-ylamino)-5-trifluoromethyl-pyrimidin-4-ylamino]-N-methyl-benzamide], the values for the IC50 in assay [1] and in assay [2] were below 100 nM and 100 to 1000 nM, respectively.

As for `COc1cc2c(cc1Nc1ncc(C(F)(F)F)c(Nc3ccc(N4CCOCC4)cc3OC)n1)CCOC(=O)N2C` [Example 1514, 3-Methoxy-2-[4-(2-methoxy-4-morpholin-4-yl-phenylamino)-5-trifluoromethyl-pyrimidin-2-ylamino]-5-methyl-8,9-dihydro-5H-7-oxa-5-aza-benzocyclohepten-6-one], the values for the IC50 in assay [1] and in assay [2] were below 100 nM and above 10000 nM, respectively.

Turning to `COc1cc2c(cc1Nc1ncc(Cl)c(Nc3ccccc3OCC#N)n1)CCOC(=O)N2C` [Example 1516, {2-[5-Chloro-2-(3-methoxy-5-methyl-6-oxo-5,6,8,9-tetrahydro-7-oxa-5-aza-benzocyclohepten-2-ylamino)-pyrimidin-4-ylamino]-phenoxy}-acetonitrile], the results for the IC50 in assay [1] and in assay [2] were below 100 nM and 1000 to 10000 nM, respectively.

Regarding `CNC(=O)c1ccccc1Nc1nc(Nc2c(OC)ccc3c2CCOC(=O)N3C)ncc1Cl` [Example 1517, 2-[5-Chloro-2-(2-methoxy-5-methyl-6-oxo-5,6,8,9-tetrahydro-7-oxa-5-aza-benzocyclohepten-1-ylamino)-pyrimidin-4-ylamino]-N-methyl-benzamide], the values for the IC50 in assay [1] and in assay [2] were 1000 to 10000 nM and above 10000 nM, respectively.

In the case of `COc1cc2c(cc1Nc1ncc(C(F)(F)F)c(Nc3ccc(N4CCOCC4)cc3OC)n1)N(C)C(=O)OCC2` [Example 1518, 2-Methoxy-3-[4-(2-methoxy-4-morpholin-4-yl-phenylamino)-5-trifluoromethyl-pyrimidin-2-ylamino]-5-methyl-8,9-dihydro-5H-7-oxa-5-aza-benzocyclohepten-6-one], the results for the IC50 in assay [1] and in assay [2] were 100 to 1000 nM and 1000 to 10000 nM, respectively.

For the molecule `CCN1C(=O)CCC(C)(C)c2ccc(Nc3ncc(Cl)c(Nc4c(F)cccc4OCC#N)n3)cc21` [Example 1520, {2-[5-Chloro-2-(1-ethyl-5,5-dimethyl-2-oxo-2,3,4,5-tetrahydro-1H-1-benzazepin-8-ylamino)-pyrimidin-4-ylamino]-3-fluoro-phenoxy}-acetonitrile], the IC50 in assay [1] and in assay [2] was below 100 nM each time.

Regarding `COCCN1C(=O)CCC(C)(C)c2ccc(Nc3ncc(Cl)c(Nc4c(F)cccc4OCC#N)n3)cc21` [Example 1521, (2-{5-Chloro-2-[1-(2-methoxy-ethyl)-5,5-dimethyl-2-oxo-2,3,4,5-tetrahydro-1H-1-benzazepin-8-ylamino]-pyrimidin-4-ylamino}-3-fluoro-phenoxy)-acetonitrile], the IC50 in assay [1] and in assay [2] was below 100 nM throughout.

Consider `COc1cc2c(cc1Nc1ncc(Cl)c(Nc3ccccc3S(=O)(=O)N(C)C)n1)CCN(CCN1CCOCC1)CC2` [Example 1522, 2-{5-Chloro-2-[8-methoxy-3-(2-morpholin-4-yl-ethyl)-2,3,4,5-tetrahydro-1H-3-benzazepin-7-ylamino]-pyrimidin-4-ylamino}-N,N-dimethyl-benzenesulfonamide], for which the IC50 in assay [1] is below 100 nM; in assay [2], 1000 to 10000 nM.

Regarding `COc1cc2c(cc1Nc1ncc(Cl)c(Nc3ccc(N4CCOCC4)cc3OC)n1)CCN(CCN1CCOCC1)CC2` [Example 1523, 5-Chloro-N(2)-[8-methoxy-3-(2-morpholin-4-yl-ethyl)-2,3,4,5-tetrahydro-1H-3-benzazepin-7-yl]-N(4)-(2-methoxy-4-morpholin-4-yl-phenyl)-pyrimidine-2,4-diamine], the figures for the IC50 in assay [1] and in assay [2] were below 100 nM and above 10000 nM, respectively.

As to `CNC(=O)c1ccccc1Nc1nc(Nc2cc3c(cc2OC)CCN(CCN2CCOCC2)CC3)ncc1Cl` [Example 1524, 2-{5-Chloro-2-[8-methoxy-3-(2-morpholin-4-yl-ethyl)-2,3,4,5-tetrahydro-1H-3-benzazepin-7-ylamino]-pyrimidin-4-ylamino}-N-methyl-benzamide], the IC50 in assay [1] is below 100 nM; in assay [2] it was 1000 to 10000 nM.

As for `COc1cc2c(cc1Nc1ncc(Cl)c(Nc3ccccc3S(=O)(=O)N(C)C)n1)CCN(CC(=O)N1CCOCC1)CC2` [Example 1525, 2-{5-Chloro-2-[8-methoxy-3-(2-morpholin-4-yl-2-oxo-ethyl)-2,3,4,5-tetrahydro-1H-3-benzazepin-7-ylamino]-pyrimidin-4-ylamino}-N,N-dimethyl-benzenesulfonamide], the values for the IC50 in assay [1] and in assay [2] were below 100 nM and above 10000 nM, respectively.

In the case of `COc1cc2c(cc1Nc1ncc(Cl)c(Nc3ccc(N4CCOCC4)cc3OC)n1)CCN(CC(=O)N1CCOCC1)CC2` [Example 1526, 2-{7-[5-Chloro-4-(2-methoxy-4-morpholin-4-yl-phenylamino)-pyrimidin-2-ylamino]-8-methoxy-1,2,4,5-tetrahydro-3-benzazepin-3-yl}-1-morpholin-4-yl-ethanone], the figures for the IC50 in assay [1] and in assay [2] were below 100 nM and above 10000 nM, respectively.

As for `COc1cc2c(cc1Nc1ncc(Cl)c(N[C@H]3[C@@H](C(N)=O)[C@@H]4C=C[C@H]3C4)n1)CCN(CC(=O)N1CCOCC1)CC2` [Example 1527, (1S,2S,3R,4R)-3-{5-Chloro-2-[8-methoxy-3-(2-morpholin-4-yl-2-oxo-ethyl)-2,3,4,5-tetrahydro-1H-3-benzazepin-7-ylamino]-pyrimidin-4-ylamino}-bicyclo[2.2.1]hept-5-ene-2-carboxylic acid amide], the IC50 in assay [1] was below 100 nM; in assay [2], above 10000 nM.

`COc1cc2c(cc1Nc1ncc(Cl)c(N[C@@H]3CCCC[C@H]3NS(C)(=O)=O)n1)CCN(CC(=O)N1CCOCC1)CC2` [Example 1528, N-((1R,2R)-2-{5-Chloro-2-[8-methoxy-3-(2-morpholin-4-yl-2-oxo-ethyl)-2,3,4,5-tetrahydro-1H-3-benzazepin-7-ylamino]-pyrimidin-4-ylamino}-cyclohexyl)-methanesulfonamide]: the IC50 was below 100 nM in assay [1] and above 10000 nM in assay [2].

As for `COc1cc2c(cc1Nc1ncc(Cl)c(N[C@H]3[C@@H](C(N)=O)[C@@H]4C=C[C@H]3C4)n1)CCN(CCN1CCOCC1)CC2` [Example 1529, (1S,2S,3R,4R)-3-{5-Chloro-2-[8-methoxy-3-(2-morpholin-4-yl-ethyl)-2,3,4,5-tetrahydro-1H-3-benzazepin-7-ylamino]-pyrimidin-4-ylamino}-bicyclo[2.2.1]hept-5-ene-2-carboxylic acid amide], the figures for the IC50 in assay [1] and in assay [2] were below 100 nM and above 10000 nM, respectively.

On to `COc1cc2c(cc1Nc1ncc(Cl)c(Nc3ccccc3S(=O)(=O)N(C)C)n1)CCN(CCO)CC2` [Example 1530, 2-{5-Chloro-2-[3-(2-hydroxy-ethyl)-8-methoxy-2,3,4,5-tetrahydro-1H-3-benzazepin-7-ylamino]-pyrimidin-4-ylamino}-N,N-dimethyl-benzenesulfonamide], for which the IC50 was below 100 nM in assay [1] and 1000 to 10000 nM in assay [2].

Take `COc1cc2c(cc1Nc1ncc(Cl)c(N[C@@H]3CCCC[C@H]3NS(C)(=O)=O)n1)CCN(CCO)CC2` [Example 1531, N-((1R,2R)-2-{5-Chloro-2-[3-(2-hydroxy-ethyl)-8-methoxy-2,3,4,5-tetrahydro-1H-3-benzazepin-7-ylamino]-pyrimidin-4-ylamino}-cyclohexyl)-methanesulfonamide]: the IC50 in assay [1] was below 100 nM; in assay [2], above 10000 nM.

For `COc1cc2c(cc1Nc1ncc(Cl)c(N[C@H]3[C@@H](C(N)=O)[C@@H]4C=C[C@H]3C4)n1)CCN(CCO)CC2` [Example 1532, (1S,2S,3R,4R)-3-{5-Chloro-2-[3-(2-hydroxy-ethyl)-8-methoxy-2,3,4,5-tetrahydro-1H-3-benzazepin-7-ylamino]-pyrimidin-4-ylamino}-bicyclo[2.2.1]hept-5-ene-2-carboxylic acid amide], the IC50 in assay [1] is below 100 nM; in assay [2], above 10000 nM.

On to `COc1cc2c(cc1Nc1ncc(Cl)c(N[C@@H]3CCCC[C@H]3NS(C)(=O)=O)n1)CCN(CCN1CCOCC1)CC2` [Example 1533, N-((1R,2R)-2-{5-Chloro-2-[8-methoxy-3-(2-morpholin-4-yl-ethyl)-2,3,4,5-tetrahydro-1H-3-benzazepin-7-ylamino]-pyrimidin-4-ylamino}-cyclohexyl)-methanesulfonamide], for which the results for the IC50 in assay [1] and in assay [2] were below 100 nM and above 10000 nM, respectively.

As to `COc1cc2c(cc1Nc1ncc(Cl)c(Nc3ccccc3S(=O)(=O)C(C)C)n1)CCN(CCN1CCOCC1)CC2` [Example 1534, 5-Chloro-N(2)-[8-methoxy-3-(2-morpholin-4-yl-ethyl)-2,3,4,5-tetrahydro-1H-3-benzazepin-7-yl]-N(4)-[2-(propane-2-sulfonyl)-phenyl]-pyrimidine-2,4-diamine], the IC50 in assay [1] is below 100 nM; in assay [2], above 10000 nM.

As to `COc1cc2c(cc1Nc1ncc(Cl)c(Nc3ccccc3S(=O)(=O)C(C)C)n1)CCN(CC(=O)N1CCOCC1)CC2` [Example 1536, 2-(7-{5-Chloro-4-[2-(propane-2-sulfonyl)-phenylamino]-pyrimidin-2-ylamino}-8-methoxy-1,2,4,5-tetrahydro-3-benzazepin-3-yl)-1-morpholin-4-yl-ethanone], the IC50 in assay [1] is below 100 nM; in assay [2] it was above 10000 nM.

`COc1cc2c(cc1Nc1ncc(Cl)c(Nc3ccc(N(C)C)cc3OC)n1)CCN(CCN1CCOCC1)CC2` [Example 1537, 5-Chloro-N(4)-(4-dimethylamino-2-methoxy-phenyl)-N(2)-[8-methoxy-3-(2-morpholin-4-yl-ethyl)-2,3,4,5-tetrahydro-1H-3-benzazepin-7-yl]-pyrimidine-2,4-diamine]: the IC50 in assay [1] is below 100 nM; in assay [2] it was above 10000 nM.
